Measurements reported in US20260365670A1, “EGFR INHIBITORS AND USES THEREOF” (DIZAL (JIANGSU) PHARMACEUTICAL CO., LTD., priority 2022, published 2026).
Like-named read-outs stand apart in the source and are kept apart here.

Experiments:
EGFR wild type = biological target: T1, EGFR wild type (Homo sapiens, UniProt P00533); experiment: Inhibition of EGFR wild type biochemical enzymatic activity (HTRF); details: EGFR WT, 1 mM ATP, 1 h, room temperature, read-out: IC50 (nM) @WT
T1 construct: purchased Carna Bio
Outline: (§1)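 HTRF kinase assay: each EGFR enzyme phosphorylated 1 μM biotinylated TK substrate with 1 mM ATP in buffer containing 5 mM MgCl2, 1 mM MnCl2, 0.01% CHAPS, 1 mM DTT, 0.5% DMSO. After 1 h at room temperature, EDTA detection mix stopped the reaction. IC50 came from a four-parameter logistic fit of the 665/615 nm ratio.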

EGFR L858R/T790M = biological target: T2, EGFR L858R/T790M (Homo sapiens, UniProt P00533, L858R/T790M); experiment: Inhibition of EGFR L858R/T790M biochemical enzymatic activity (HTRF); details: EGFR L858R-T790M, 1 mM ATP, 1 h, room temperature, read-out: IC50 (nM) @L858R-T790M
T2 construct: purchased Carna Bio
Outline: as §1

EGFR Exon19Del/T790M = biological target: T3, EGFR Exon19Del/T790M (Homo sapiens, UniProt P00533, DEL746-750/T790M); experiment: Inhibition of EGFR Exon19Del/T790M biochemical enzymatic activity (HTRF); details: EGFR Del19-T790M, 1 mM ATP, 1 h, room temperature, read-out: IC50 (nM) @Del19-T790M
T3 construct: purchased Carna Bio
Outline: as §1

EGFR L858R = biological target: T4, EGFR L858R (Homo sapiens, UniProt P00533, L858R); experiment: Inhibition of EGFR L858R biochemical enzymatic activity (HTRF); details: 1 mM ATP, 1 h, room temperature, read-out: IC50 (nM) @L858R
T4 construct: purchased Carna Bio
Outline: as §1

EGFR Exon19Del = biological target: T5, EGFR Exon19Del (Homo sapiens, UniProt P00533, DEL746-750); experiment: Inhibition of EGFR Exon19Del biochemical enzymatic activity (HTRF); details: EGFR Del19, 1 mM ATP, 1 h, room temperature, read-out: IC50 @Del19
T5 construct: purchased Carna Bio
Outline: as §1

A-431 = experiment: Cell proliferation GI50, A-431 cells (Table 6); format: cell-based
EGFR (C797S L858R) = biological target: T6, EGFR (C797S L858R) (Homo sapiens, UniProt P00533, C797S/L858R); experiment: Inhibition of EGFR (C797S L858R) biochemical enzymatic activity (HTRF); details: EGFR L858-C797S, 1 mM ATP, 1 h, room temperature, read-out: IC50 (nM) @L858-C797S
T6 construct: purchased signalchem
Outline: as §1

[1] = system: Ba/F3 cells expressing EGFR mutations; experiment: Cell proliferation assay, Ba/F3 cells expressing EGFR mutations (CellTiter-Glo, 72 hours); format: cell-based; details: CellTiter-Glo
Outline: (§2)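 Ba/F3 cells carrying EGFR mutants (5000/well) or PC-9 cells (500/well) in RPMI1640 were dosed with compound series after overnight attachment and grown 72 h. Viability read by CellTiter-Glo, with day-0 counts subtracted; GI50 from curve fits of % proliferation versus DMSO control.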

EGFR (d746-750 C797S) = biological target: T7, EGFR (d746-750 C797S) (Homo sapiens, UniProt P00533, C797S/DEL746-750); experiment: Inhibition of EGFR (d746-750 C797S) biochemical enzymatic activity (HTRF); details: EGFR Del19-C797S, 1 mM ATP, 1 h, room temperature, read-out: IC50 (nM) @Del19-C797S
T7 construct: purchased signalchem
Outline: as §1

[2] = biological target: T8, EGFR[T790M/C797S/d746-750] (Homo sapiens, UniProt P00533, C797S/DEL746-750/T790M); experiment: Inhibition of EGFR[T790M/C797S/d746-750] biochemical enzymatic activity (HTRF); details: EGFR T790M-C797S-Del19, 1 mM ATP, 1 h, room temperature, read-out: IC50 (nM) @T790M - C797S - Del19
T8 construct: purchased Carna Bio
Outline: as §1

PC-9 = experiment: Cell proliferation assay, PC-9 cells (CellTiter-Glo, 72 hours); format: cell-based; details: PC9 cells, CellTiter-Glo, read-out: PC9 GI50
Outline: as §2

EGFR[T790M/C797S/L858R] = biological target: T9, EGFR[T790M/C797S/L858R] (Homo sapiens, UniProt P00533, C797S/L858R/T790M); experiment: Inhibition of EGFR[T790M/C797S/L858R] biochemical enzymatic activity (HTRF); details: EGFR T790M-C797S-L858R, 1 mM ATP, 1 h, room temperature, read-out: IC50 (nM) @T790M- C797S - L858R
T9 construct: purchased Carna Bio
Outline: as §1

[3] = Homo sapiens, A-431, A-431 cells
[4] = Mus musculus, BaF3, 72 h, BaF3 cells, EGFR DEL19-C797S, read-out: DEL19-C797S/BaF3 GI50
[5] = Mus musculus, BaF3, 72 h, BaF3 cells, EGFR DEL19-T790-C797S, read-out: DEL19-T790-C797S/BaF3 GI50
[6] = Mus musculus, BaF3, 72 h, BaF3 cells, EGFR L858R, read-out: L858R/BaF3 GI50
[7] = Mus musculus, BaF3, 72 h, BaF3 cells, EGFR L858R-C797S, read-out: L858R-C797S/BaF3 GI50
[8] = Mus musculus, BaF3, 72 h, BaF3 cells, EGFR L858R-T790-C797S, read-out: L858R-T790-C797S/BaF3 GI50
[9] = Mus musculus, BaF3, 72 h, BaF3 cells, EGFR L858R-T790M, read-out: L858R-T790M/BaF3 GI50
[10] = Mus musculus, BaF3, 72 h, EGFR DEL19-T790M, read-out: DEL19-T790M GI50
[11] = BaF3 cells, EGFR DEL19-C797S, read-out: DEL19-C797S/BaF3 GI50
[12] = BaF3 cells, EGFR DEL19-T790-C797S, read-out: DEL19-T790-C797S/BaF3 GI50
[13] = BaF3 cells, EGFR L858R, read-out: L858R/BaF3 GI50
[14] = BaF3 cells, EGFR L858R-C797S, read-out: L858R-C797S/BaF3 GI50
[15] = BaF3 cells, EGFR L858R-T790-C797S, read-out: L858R-T790-C797S/BaF3 GI50
[16] = BaF3 cells, EGFR L858R-T790M, read-out: L858R-T790M/BaF3 GI50
[17] = EGFR DEL19-T790M, read-out: DEL19-T790M GI50

T9 sequence (P00533 25-1210 T790M/C797S/L858R): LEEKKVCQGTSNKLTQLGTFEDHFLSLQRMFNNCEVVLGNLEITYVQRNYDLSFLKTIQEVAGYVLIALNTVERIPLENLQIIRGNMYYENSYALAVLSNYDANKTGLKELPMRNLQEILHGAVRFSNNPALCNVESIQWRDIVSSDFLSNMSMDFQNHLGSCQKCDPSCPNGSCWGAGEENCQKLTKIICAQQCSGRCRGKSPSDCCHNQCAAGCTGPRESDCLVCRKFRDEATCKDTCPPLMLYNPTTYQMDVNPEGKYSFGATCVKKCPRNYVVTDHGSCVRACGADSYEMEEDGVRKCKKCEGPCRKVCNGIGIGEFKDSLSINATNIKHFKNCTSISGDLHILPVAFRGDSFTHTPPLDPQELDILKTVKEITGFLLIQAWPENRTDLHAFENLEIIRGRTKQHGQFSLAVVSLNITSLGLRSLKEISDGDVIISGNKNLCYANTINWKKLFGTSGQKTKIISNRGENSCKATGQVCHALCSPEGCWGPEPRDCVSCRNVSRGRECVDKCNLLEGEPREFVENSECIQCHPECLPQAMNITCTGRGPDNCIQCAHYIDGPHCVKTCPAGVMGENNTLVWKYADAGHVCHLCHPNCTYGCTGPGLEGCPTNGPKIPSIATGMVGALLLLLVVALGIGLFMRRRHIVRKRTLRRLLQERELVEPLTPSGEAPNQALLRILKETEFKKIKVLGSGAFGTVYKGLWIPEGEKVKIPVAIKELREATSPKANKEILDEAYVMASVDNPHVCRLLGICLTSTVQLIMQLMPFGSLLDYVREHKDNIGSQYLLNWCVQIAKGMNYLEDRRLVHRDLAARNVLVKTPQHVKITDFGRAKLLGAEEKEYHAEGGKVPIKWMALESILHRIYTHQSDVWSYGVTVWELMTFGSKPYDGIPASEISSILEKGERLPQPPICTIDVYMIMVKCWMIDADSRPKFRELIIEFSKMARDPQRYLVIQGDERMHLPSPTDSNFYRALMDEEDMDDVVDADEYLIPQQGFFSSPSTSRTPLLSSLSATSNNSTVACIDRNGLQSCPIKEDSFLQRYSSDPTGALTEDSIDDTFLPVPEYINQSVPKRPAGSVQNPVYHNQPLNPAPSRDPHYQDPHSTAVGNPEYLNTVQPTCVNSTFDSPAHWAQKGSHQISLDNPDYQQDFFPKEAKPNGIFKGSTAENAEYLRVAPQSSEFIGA
T1 sequence (P00533 25-1210): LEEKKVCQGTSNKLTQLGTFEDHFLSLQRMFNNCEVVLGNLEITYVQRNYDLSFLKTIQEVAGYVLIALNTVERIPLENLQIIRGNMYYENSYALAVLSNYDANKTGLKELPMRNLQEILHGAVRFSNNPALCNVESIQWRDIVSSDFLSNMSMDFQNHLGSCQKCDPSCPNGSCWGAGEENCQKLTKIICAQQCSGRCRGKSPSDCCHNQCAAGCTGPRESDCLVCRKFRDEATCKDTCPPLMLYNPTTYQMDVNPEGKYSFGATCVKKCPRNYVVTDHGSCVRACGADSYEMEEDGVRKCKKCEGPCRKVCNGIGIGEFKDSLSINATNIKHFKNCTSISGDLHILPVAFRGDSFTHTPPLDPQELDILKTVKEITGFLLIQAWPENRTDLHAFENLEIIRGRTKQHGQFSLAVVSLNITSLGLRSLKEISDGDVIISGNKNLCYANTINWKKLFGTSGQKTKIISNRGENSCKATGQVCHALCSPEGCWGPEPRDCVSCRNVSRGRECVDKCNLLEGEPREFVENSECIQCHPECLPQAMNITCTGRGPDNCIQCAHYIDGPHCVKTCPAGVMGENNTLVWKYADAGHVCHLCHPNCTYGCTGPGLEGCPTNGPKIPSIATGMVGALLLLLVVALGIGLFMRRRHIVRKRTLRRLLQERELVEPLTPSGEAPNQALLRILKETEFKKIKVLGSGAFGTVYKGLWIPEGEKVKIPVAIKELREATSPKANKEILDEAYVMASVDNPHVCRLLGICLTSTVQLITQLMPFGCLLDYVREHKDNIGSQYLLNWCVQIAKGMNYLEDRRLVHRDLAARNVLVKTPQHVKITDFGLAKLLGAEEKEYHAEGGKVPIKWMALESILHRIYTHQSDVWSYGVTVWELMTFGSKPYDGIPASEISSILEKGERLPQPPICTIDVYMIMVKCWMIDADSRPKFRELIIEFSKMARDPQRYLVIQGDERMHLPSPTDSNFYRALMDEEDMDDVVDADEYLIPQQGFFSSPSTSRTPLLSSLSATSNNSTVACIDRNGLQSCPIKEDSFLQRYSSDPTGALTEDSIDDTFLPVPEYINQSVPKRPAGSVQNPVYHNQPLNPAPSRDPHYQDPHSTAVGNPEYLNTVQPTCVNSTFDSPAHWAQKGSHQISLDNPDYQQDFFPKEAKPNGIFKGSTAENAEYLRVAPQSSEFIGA
T3 sequence (P00533 with tags, fused parts or gaps DEL746-750/T790M limits assumed): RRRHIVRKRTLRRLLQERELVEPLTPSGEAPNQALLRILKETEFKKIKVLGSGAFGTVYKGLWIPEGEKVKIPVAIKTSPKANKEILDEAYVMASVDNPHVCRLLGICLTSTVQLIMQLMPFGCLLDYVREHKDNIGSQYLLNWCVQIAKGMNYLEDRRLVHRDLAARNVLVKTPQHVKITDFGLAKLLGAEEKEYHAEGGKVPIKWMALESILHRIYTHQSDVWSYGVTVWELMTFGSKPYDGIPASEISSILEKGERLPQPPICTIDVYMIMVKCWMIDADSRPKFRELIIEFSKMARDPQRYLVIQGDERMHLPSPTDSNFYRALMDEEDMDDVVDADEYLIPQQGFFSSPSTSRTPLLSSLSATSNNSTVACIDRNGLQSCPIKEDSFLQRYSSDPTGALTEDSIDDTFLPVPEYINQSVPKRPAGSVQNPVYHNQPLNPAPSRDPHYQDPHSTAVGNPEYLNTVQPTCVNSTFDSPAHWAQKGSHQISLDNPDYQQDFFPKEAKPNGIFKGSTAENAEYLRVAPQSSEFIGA
T4 sequence (P00533 25-1210 L858R): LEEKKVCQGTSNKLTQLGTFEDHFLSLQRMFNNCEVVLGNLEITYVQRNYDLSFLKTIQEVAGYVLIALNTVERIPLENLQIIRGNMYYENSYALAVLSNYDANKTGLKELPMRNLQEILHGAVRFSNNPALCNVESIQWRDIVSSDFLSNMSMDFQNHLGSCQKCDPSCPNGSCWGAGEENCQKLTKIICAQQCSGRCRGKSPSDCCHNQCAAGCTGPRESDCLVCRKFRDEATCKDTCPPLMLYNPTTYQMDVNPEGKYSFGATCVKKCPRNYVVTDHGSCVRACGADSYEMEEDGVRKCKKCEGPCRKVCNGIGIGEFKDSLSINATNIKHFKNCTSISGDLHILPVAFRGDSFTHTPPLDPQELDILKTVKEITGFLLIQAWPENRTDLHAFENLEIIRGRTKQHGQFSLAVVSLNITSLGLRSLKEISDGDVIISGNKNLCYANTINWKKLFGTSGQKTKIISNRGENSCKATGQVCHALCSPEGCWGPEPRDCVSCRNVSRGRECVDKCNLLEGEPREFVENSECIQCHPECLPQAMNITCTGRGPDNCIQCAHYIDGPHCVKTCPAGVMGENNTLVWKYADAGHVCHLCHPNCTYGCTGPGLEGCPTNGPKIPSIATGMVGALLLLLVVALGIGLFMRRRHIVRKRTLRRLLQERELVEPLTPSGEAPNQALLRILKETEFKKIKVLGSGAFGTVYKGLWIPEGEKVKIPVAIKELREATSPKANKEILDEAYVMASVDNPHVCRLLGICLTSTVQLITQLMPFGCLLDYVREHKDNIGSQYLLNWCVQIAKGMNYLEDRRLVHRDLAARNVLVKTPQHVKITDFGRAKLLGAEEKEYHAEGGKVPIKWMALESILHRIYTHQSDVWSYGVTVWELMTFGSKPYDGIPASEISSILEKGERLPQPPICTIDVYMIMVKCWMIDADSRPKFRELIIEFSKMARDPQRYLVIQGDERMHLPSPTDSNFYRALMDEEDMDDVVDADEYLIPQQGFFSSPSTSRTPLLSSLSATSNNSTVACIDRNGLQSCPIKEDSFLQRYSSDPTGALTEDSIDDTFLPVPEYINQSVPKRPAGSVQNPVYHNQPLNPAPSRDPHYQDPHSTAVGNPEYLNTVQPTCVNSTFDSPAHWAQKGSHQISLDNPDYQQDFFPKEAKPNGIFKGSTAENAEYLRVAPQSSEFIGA
T7 sequence (P00533 with tags, fused parts or gaps DEL746-750/C797S limits assumed): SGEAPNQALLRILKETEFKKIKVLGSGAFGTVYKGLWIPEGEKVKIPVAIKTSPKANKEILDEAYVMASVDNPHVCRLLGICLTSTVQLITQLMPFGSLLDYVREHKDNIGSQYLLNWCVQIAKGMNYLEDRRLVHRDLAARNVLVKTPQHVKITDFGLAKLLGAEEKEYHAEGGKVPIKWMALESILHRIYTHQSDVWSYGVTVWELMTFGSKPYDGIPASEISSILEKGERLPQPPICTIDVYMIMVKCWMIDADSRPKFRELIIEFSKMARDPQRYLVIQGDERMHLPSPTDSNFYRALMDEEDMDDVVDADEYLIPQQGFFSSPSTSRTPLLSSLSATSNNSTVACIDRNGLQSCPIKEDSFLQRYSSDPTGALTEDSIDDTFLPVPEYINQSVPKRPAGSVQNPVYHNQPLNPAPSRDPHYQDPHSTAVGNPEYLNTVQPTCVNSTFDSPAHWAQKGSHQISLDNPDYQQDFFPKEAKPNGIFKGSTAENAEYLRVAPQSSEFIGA

SMILES	IC50 (EGFR wild type) [nM]	IC50 (EGFR L858R/T790M) [nM]	IC50 (EGFR Exon19Del/T790M) [nM]	IC50 (EGFR L858R) [nM]	IC50 (EGFR Exon19Del) [nM]	GI50 (A-431; [3]) [nM]	IC50 (EGFR (C797S L858R)) [nM]	GI50 [1, 4] [nM]	GI50 [1, 5] [nM]	GI50 [1, 6] [nM]	GI50 [1, 7] [nM]	GI50 [1, 8] [nM]	GI50 [1, 9] [nM]	GI50 [1, 10] [nM]	IC50 (EGFR (d746-750 C797S)) [nM]	IC50 [2] [nM]	GI50 (PC-9; Homo sapiens, PC-9, 72 h) [nM]	IC50 (EGFR[T790M/C797S/L858R]) [nM]	GI50 (A-431; A-431 cells) [nM]	GI50 [1, 11] [nM]	also measured
Cn1ncc2c1OCCN1CC3CCC(C3)(C1)n1c(nc3cc(Br)ccc31)NC(=O)c1cc-2c(=O)n(C)c1 (stereo not drawn) [Example A59, 6-Bromo-15,21-dimethyl-23-oxa-2,9,11,15,20,21,26-heptaazaheptacyclo[24.4.1.1^{1,28}.1^{13,17}.0^{2,10}.0^{3,8}.0^{18,22}]tritriaconta-3,5,7,9,13,17(33),18(22),19-octaene-12,16-dione]	> 5000	2610	11	> 5000	202	1140	4720	32	75	201	222	160	964	140	140	11	295	807	–	–	–
CN1CCN(c2ccc3c(c2)nc2n3C34CCC(CN(CCOc5c(cnn5C)-c5cc(cn(C)c5=O)C(=O)N2)C3)C4)CC1 (stereo not drawn) [Example A60A, 15,21-dimethyl-6-(4-methylpiperazin-1-yl)-23-oxa-2,9,11,15,20,21,26-heptaazaheptacyclo[24.4.1.1^{1,28}.1^{13,17}.0^{2,10}.0^{3,8}.0^{18,22}]tritriaconta-3,5,7,9,13,17(33),18(22),19-octaene-12,16-dione]	> 5000	> 5000	141	> 5000	276	–	> 5000	–	–	–	–	–	–	–	196	117	–	> 5000	6550	96	GI50 [1, 12]: 166 nM; GI50 [1, 13]: 315 nM; GI50 [1, 14]: 519 nM; GI50 [1, 15]: 403 nM; GI50 [1, 16]: 1400 nM; GI50 [1, 17]: 285 nM; GI50 (PC-9): 633 nM
CN1CCN(c2ccc3c(c2)nc2n3C34CCC(CN(CCOc5c(cnn5C)-c5cc(cn(C)c5=O)C(=O)N2)C3)C4)CC1 (stereo not drawn) [Example A60B, 15,21-dimethyl-6-(4-methylpiperazin-1-yl)-23-oxa-2,9,11,15,20,21,26-heptaazaheptacyclo[24.4.1.1^{1,28}.1^{13,17}.0^{2,10}.0^{3,8}.0^{18,22}]tritriaconta-3,5,7,9,13,17(33),18(22),19-octaene-12,16-dione]	4480	49	0.82	135	3.2	–	65	–	–	–	–	–	–	–	1.7	0.81	–	44	1340	1.4	GI50 [1, 12]: 4.4 nM; GI50 [1, 13]: 21 nM; GI50 [1, 14]: 15 nM; GI50 [1, 15]: 8.4 nM; GI50 [1, 16]: 53 nM; GI50 [1, 17]: 6.9 nM; GI50 (PC-9): 15 nM
Cn1ncc2c1OCCN1CC3CCC(C3)(C1)n1c(nc3ccccc31)NC(=O)c1cc-2c(=O)n(C)c1 (stereo not drawn) [Example A61B, 15,21-Dimethyl-23-oxa-2,9,11,15,20,21,26-heptaazaheptacyclo[24.4.1.1^{1,28}.1^{13,17}.0^{2,10}.0^{3,8}.0^{18,22}]tritriaconta-3,5,7,9,13,17(33),18(22),19-octaene-12,16-dione]	2420	8	1.8	224	6.1	1790	146	1.7	11	21	22	16	55	9.9	2.5	1.7	29	17	–	–	–
Cn1ncc2c1OCCN1CC3CCC(C3)(C1)n1c(nc3ccc(N4CCOCC4)cc31)NC(=O)c1cc-2c(=O)n(C)c1 (stereo not drawn) [Example A62]	2040	7.6	6.2	144	9.6	–	63	–	–	–	–	–	–	–	3.8	6.3	–	7.3	2370	0.66	GI50 [1, 12]: 5.3 nM; GI50 [1, 13]: 10 nM; GI50 [1, 14]: 9.2 nM; GI50 [1, 15]: 9.2 nM; GI50 [1, 16]: 4.4 nM; GI50 [1, 17]: 6.1 nM; GI50 (PC-9): 4.9 nM
Cn1ncc2c1OCCN1CC3CCC(CC3)(C1)n1c(nc3ccc(N4CCOCC4)cc31)NC(=O)c1cc-2c(=O)n(C)c1 [Example A74, 15,21-Dimethyl-5-(morpholin-4-yl)-23-oxa-2,9,11,15,20,21,26-heptaazaheptacyclo[26.2.2.1^{1,26}.1^{13,17}.0^{2,10}.0^{3,8}.0^{18,22}]tetratriaconta-3,5,7,9,13,17(34),18(22),19-octaene-12,16-dione]	> 5000	81	8.6	707	24	2370	573	4.5	40	41	41	60	104	37	23	6.8	84	367	–	–	–
CN1CCN(c2ccc3nc4n(c3c2)C23CCC(CC2)CN(CCOc2c(cnn2C)-c2cc(cn(C)c2=O)C(=O)N4)C3)CC1 [Example A75, 15,21-Dimethyl-5-(4-methylpiperazin-1-yl)-23-oxa-2,9,11,15,20,21,26-heptaazaheptacyclo[26.2.2.1^{1,26}.1^{13,17}.0^{2,10}.0^{3,8}.0^{18,22}]tetratriaconta-3,5,7,9,13,17(34),18(22),19-octaene-12,16-dione]	672	6	3.8	44	3.3	5420	35	2.5	27	21	21	35	69	20	2.8	3.4	44	8	–	–	–
